Counter-ions that a name gives are not always drawn.
The compounds below were run on IL-1β production in THP-1 cells (LPS and ATP; NLRP3 inflammasome activation) (assay: THP-1 IL-1β production inhibitory test). Settings: Homo sapiens, THP-1, 2 h, PMA-differentiated THP-1 cells, LPS 50 ng/mL and ATP 5 mM, 2 hours, ELISA; read-out: IC50 (nM), IL-1β production.
Type: cell-based, human
Experimental: THP-1 IL-1β Production Inhibitory Test
To THP-1 cells, 50 ng/mL PMA (phorbol myristate acetate, SIGMA, P1585) was added at 37° C. and then the cells were cultured for 2 days. […] The cells were cultured at 37° C. for 15 minutes. LPS (lipopolysaccharide, SIMGA, L2880) and ATP (adenosine triphosphate, SIGMA, A2383) were added such that the final concentrations of them became 50 ng/mL and 5 mM, respectively. The cells were cultured at 37° C. for 2 hours. The supernatant was collected and the concentration of IL-1β was measured by ELISA (DuoSet ELISA human IL-1β, R&D Systems, DY201). The concentration of IL-1β was plotted against the logarithm of the concentration of the test compound, and the IC50 value was calculated by sigmoidal Emax model nonlinear regression analysis.

SMILES	IC50 [nM]
Cc1nc(N[C@H]2CCC(F)(F)C2)nnc1-c1ccc(C(F)(F)F)cc1O [Example 7]	28
Cc1nc(N[C@@H]2CCCC[C@H]2N)nnc1-c1ccc(Cl)cc1O [Example 146]	12
Cc1nc(N[C@@H]2CCCC[C@H]2O)nnc1-c1ccc(C2CC2)cc1O [Example 67]	9.6
Cc1nc(N[C@@H]2CCCN(CC(=O)O)C2)nnc1-c1ccc(C(F)(F)F)cc1O [Example 183]	150
Cc1nc(N[C@@H]2CCCN(CCC#N)C2)nnc1-c1ccc(C(F)(F)F)cc1O [Example 181, 3-[(3R)-3-({6-[2-hydroxy-4-(trifluoromethyl)phenyl]-5-methyl-1,2,4-triazin-3-yl}amino)piperidin-1-yl]propanenitrile]	12
Oc1cc(Cl)ccc1-c1nnc(N[C@@H]2CCOC[C@H]2O)nc1C1CC1 [Example 113]	37
Cc1nc(N[C@@H]2CCOC[C@H]2O)nnc1-c1ccc(C(F)(F)F)cc1O [Example 11]	15
Cc1nc(NCC2(O)CCC2)nnc1-c1ccc(C(F)(F)F)cc1O [Example 17]	66
Cc1nc(N[C@@H]2CCCC[C@@H](O)C2)nnc1-c1ccc(C(F)(F)F)cc1O [Example 79]	14
Cc1nc(NCC(C)(C)CO)nnc1-c1ccc(C(F)(F)F)cc1O [Example 9]	59
Cc1nc(N[C@H]2CN(C)CCC2(F)F)nnc1-c1ccc(C(F)(F)F)cc1O [Example 180]	180
Cc1nc(N[C@@H]2CC[C@H](C#N)C2)nnc1-c1ccc(C(F)(F)F)cc1O [Example 102]	11
O=C1NCC[C@@H]1Nc1nnc(-c2ccc(Cl)cc2O)c(C2CC2)n1 [Example 125]	33
CO[C@H](C)CNc1nnc(-c2ccc(C(F)(F)F)cc2O)c(C)n1 [Example 10]	40
Cc1nc(NCc2cccnc2)nnc1-c1ccc(C(F)(F)F)cc1O [Example 92]	200
Cc1nc(N[C@H]2C[C@H](CO)C2)nnc1-c1ccc(C(F)(F)F)cc1O [Example 99]	9.4
Cc1nc(N[C@@H]2CNC(=O)C2)nnc1-c1ccc(C(F)(F)F)cc1O [Example 63]	200
C[C@@H](O)CNc1nnc(-c2ccc(C(F)(F)F)cc2O)c(C(F)(F)F)n1 [Example 130]	260

SMILES	IC50 [nM]
CC(=O)N[C@H]1C[C@@H](CNc2nnc(-c3ccc(C(F)(F)F)cc3O)c(C)n2)C1 [Example 157]	5.7
Cc1nc(NC23CC(CO)(C2)C3)nnc1-c1ccc(C(F)(F)F)cc1O [Example 38]	11
Cc1nc(N[C@@H]2CC[C@@H](C#N)C2)nnc1-c1ccc(C(F)(F)F)cc1O [Example 103]	30
Cc1nc(N[C@@H]2CCCN(C)C2)nnc1-c1ccc(C(F)(F)F)cc1O [Example 187, 2-(5-methyl-3-{[(3R)-1-methylpiperidin-3-yl]amino}-1,2,4-triazin-6-yl)-5-(trifluoromethyl)phenol dihydrochloride]	1.3
Cc1nc(NC2CC3(CC(O)C3)C2)nnc1-c1ccc(C(F)(F)F)cc1O (centres unmarked) [Example 22]	13
CC(=O)NCCCCNc1nnc(-c2ccc(C(F)(F)F)cc2O)c(C)n1 [Example 86]	12
Cc1ccc(-c2nnc(N[C@H]3CCNC3=O)nc2C)c(O)c1 [Example 71]	8.2
Cc1nc(NC[C@H](C)CO)nnc1-c1ccc(C(F)(F)F)cc1O [Example 2]	32
Cc1nc(N[C@H]2C[C@@](C)(O)C2)nnc1-c1ccc(C2CC2)cc1O [Example 77]	67
CC(=O)N1CCC[C@@H](CNc2nnc(-c3ccc(C(F)(F)F)cc3O)c(C)n2)C1 [Example 153]	7.8
Oc1cc(Cl)ccc1-c1nnc(N[C@@H]2CCCC[C@H]2O)nc1C1CC1 [Example 115]	8.5
Cc1nc(N[C@H]2CCNC2=O)nnc1-c1ccc(Cl)cc1O [Example 70]	10
CC[C@@H](O)CNc1nnc(-c2ccc(C(F)(F)F)cc2O)c(C)n1 [Example 14]	62
CC(=O)N1C[C@@H](O)[C@H](Nc2nnc(-c3ccc(C(F)(F)F)cc3O)c(C)n2)C1 [Example 163, 1-[(3R,4R)-3-hydroxy-4-({6-[2-hydroxy-4-(trifluoromethyl)phenyl]-5-methyl-1,2,4-triazin-3-yl}amino)pyrrolidin-1-yl]ethan-1-one]	640
Oc1cc(C(F)(F)F)ccc1-c1nnc(N[C@@H]2CCCC[C@H]2O)nc1C(F)F [Example 118]	47
CC(C)c1nc(NC[C@@H](C)O)nnc1-c1ccc(C(F)(F)F)cc1O [Example 129]	55
Oc1cc(C(F)(F)F)ccc1-c1nnc(N[C@@H]2CCOC[C@H]2O)nc1C1CC1 [Example 111]	12

Now from value to compound:

IC50 [nM]	SMILES
690	Cc1nc(NCCC2(CN)CCC2)nnc1-c1ccc(C(F)(F)F)cc1O [Example 139]
240	Cc1nc(NCC2(N)CCOCC2)nnc1-c1ccc(C(F)(F)F)cc1O [Example 171]
220	Cc1nc(NC[C@H]2C[C@H](N)C2)nnc1-c1ccc(C(F)(F)F)cc1O [Example 143]
210	Cc1nc(N[C@@H]2CN(S(C)(=O)=O)C[C@H]2O)nnc1-c1ccc(C(F)(F)F)cc1O [Example 160, (3R,4R)-4-({6-[2-hydroxy-4-(trifluoromethyl)phenyl]-5-methyl-1,2,4-triazin-3-yl}amino)-1-(methanesulfonyl)pyrrolidin-3-ol]
160	Cc1n[nH]cc1Nc1nnc(-c2ccc(C(F)(F)F)cc2O)c(C)n1 [Example 140]
150	Cc1nc(NC(C)(C)CO)nnc1-c1ccc(C(F)(F)F)cc1O [Example 33]
130	Cc1nc(NCCC#N)nnc1-c1ccc(C(F)(F)F)cc1O [Example 101]
120	CC(=O)N1CC[C@@H](Nc2nnc(-c3ccc(C(F)(F)F)cc3O)c(C)n2)[C@H](O)C1 [Example 159, 1-[(3R,4R)-3-hydroxy-4-({6-[2-hydroxy-4-(trifluoromethyl)phenyl]-5-methyl-1,2,4-triazin-3-yl}amino)piperidin-1-yl]ethan-1-one]
100	Cc1nc(NCC2(CO)CCC2)nnc1-c1ccc(C(F)(F)F)cc1O [Example 15]
91	CC(=O)NCCC1(CNc2nnc(-c3ccc(C(F)(F)F)cc3O)c(C)n2)CCC1 [Example 104]
88	Cc1nc(NC[C@@H]2CCCO2)nnc1-c1ccc(C(F)(F)F)cc1O [Example 18]
83	C[C@]1(O)C[C@@H](Nc2nnc(-c3ccc(OC(F)(F)F)cc3O)c(C3CC3)n2)C1 [Example 120]
58	Cc1nc(NC2CCC(C(N)=O)NC2)nnc1-c1ccc(C(F)(F)F)cc1O (centres unmarked) [Example 173]
57	Cc1nc(NCC(C)(C)O)nnc1-c1ccc(C(F)(F)F)cc1O [Example 85]
57	Cc1nc(NC[C@H](O)C(F)(F)F)nnc1-c1ccc(C(F)(F)F)cc1O [Example 68]
48	Cc1nc(N[C@@H]2CCCC[C@H]2N(C)C)nnc1-c1ccc(C(F)(F)F)cc1O [Example 177]

IC50 [nM]	SMILES
38	COc1ccc(-c2nnc(N[C@H]3C[C@@](C)(O)C3)nc2C)c(O)c1 [Example 60]
33	Cc1ccc(-c2nnc(N[C@H]3C[C@@](C)(O)C3)nc2C)c(O)c1 [Example 51]
28	Cc1nc(N[C@H]2CNC2=O)nnc1-c1ccc(C(F)(F)F)cc1O [Example 62]
23	Cc1nc(Nc2cn[nH]c2)nnc1-c1ccc(C(F)(F)F)cc1O [Example 149, 2-{5-methyl-3-[(1H-pyrazol-4-yl)amino]-1,2,4-triazin-6-yl}-5-(trifluoromethyl)phenol]
23	Cc1nc(NC2(CO)CCC2)nnc1-c1ccc(C(F)(F)F)cc1O [Example 23]
21	Cc1ccc(-c2nnc(N[C@@H]3CCOC[C@H]3O)nc2C)c(O)c1 [Example 52]
18	Oc1cc(OC(F)(F)F)ccc1-c1nnc(N[C@@H]2CCOC[C@H]2O)nc1C1CC1 [Example 112]
17	Cc1nc(N[C@@H]2CCCC[C@H]2O)nnc1-c1ccc(C(C)C)cc1O [Example 36]
17	Oc1cc(C(F)(F)F)ccc1-c1nnc(N[C@@H]2CCCC[C@H]2O)nc1C1CC1 [Example 109]
16	Cc1nc(N[C@@H]2CCCCC[C@H]2O)nnc1-c1ccc(C(F)(F)F)cc1O [Example 76]
15	Oc1cc(C(F)(F)F)ccc1-c1nnc(N[C@@H]2CCC[C@H]2O)nc1C1CC1 [Example 110]
10	O=C1NCC[C@@H]1Nc1nnc(-c2ccc(C(F)(F)F)cc2O)c(C2CC2)n1 [Example 127]
8.3	Cc1nc(N[C@H]2CCNC2=O)nnc1-c1ccc(OC(F)(F)F)cc1O [Example 72]
6.4	Cc1nc(N[C@H]2C[C@@H](CO)C2)nnc1-c1ccc(C(F)(F)F)cc1O [Example 100]
4.2	Cc1nc(N[C@@H]2CCCN(CC3CC3)C2)nnc1-c1ccc(C(F)(F)F)cc1O [Example 178]

Same assay, conditions: Homo sapiens, THP-1, 2 h, read-out: IC50 (nM), IL-1β production

SMILES	IC50 [nM]
Cc1nc(NC[C@@H](C)N)nnc1-c1ccc(C(F)(F)F)cc1O [Example 148, 2-(3-{[(2R)-2-aminopropyl]amino}-5-methyl-1,2,4-triazin-6-yl)-5-(trifluoromethyl)phenol monohydrochloride]	150
COc1ccc(-c2nnc(N[C@@H]3CCCC[C@H]3O)nc2C)c(O)c1 [Example 184, 2-(3-{[(1R,2R)-2-hydroxycyclohexyl]amino}-5-methyl-1,2,4-triazin-6-yl)-5-methoxyphenol monohydrochloride]	5.8
